Test results as given in US11246846B2, “Trisodium citrate compositions having enhanced uptake across digestive mucosa” (priority 2017, dated 2022).
Where two headings read alike, the source gives them in different places. Each block holds one compound with its values, some of them ahead of it.

Key:
[1] = system: Caco2 monolayer; test: Creatine and leucine diffusion across Caco-2 monolayer, sodium/citrate sources (Example II); format: in vitro ADME, human; details: added at 10 mM to creatine monohydrate and leucine
Description: More particularly, after 21 days of growth in Corning® Transwell 6 well plat, trans-epithelial electrical resistance (TEER) was measured across the Caco2 monolayer using an EVOM II TEER meter with an Endohm 24SNAP measuring chambers. Cells were considered ready for use if the average TEER value reached approximately 900 Ohm*cm2. The Caco2 monolayer was then equilibrated in DPBS at 37° C. for 15 minutes. The apical solution was then removed and replaced with the various solutions to be tested. Basolateral chambers were sampled at 15, 30, 45, 60, 75 and 90 minutes and replaced with fresh DPBS. All samples were filtered at 0.45 μm and examined by HPLC. The HPLC analysis utilized a 250 mm×4.6 mm, 5 μm Thermo Scientific BDS Hypersil base deactivated C18 column. The mobile phase consisted of 0.5 M ammonium sulphate at a flow rate of 1.5 m/min. Sample detection was performed at 206 nm using a photodiode array. For this Example II, four formulations were studied, with chemicals present at 10 mM:
For the experiments in this study samples from each formulation were monitored apical to basolateral through a Caco-2 membrane registering an average TEER of 1650 Ohm*cm^2.

[2] = system: Caco-2 monolayer; test: Leucine permeation across Caco-2 model intestinal barrier (Example I); format: in vitro ADME, human
Excerpt: Initially, in order to make a meaningful evaluation of sodium transport of branched-chain amino acids across eukaryotic mucosal cells of the human digestive tract, the inventors elected to test leucine transport using the Caco-2 monolayer model similar to that described by Dash, et al. in “Evaluation of Creatine Transport Using Caco-2 Monolayers” id. The tests were undertaken using a Caco-2 cells so as to more closely approximate transport of creatine and branched-chain amino acids across mucosal cell membranes in vivo than might be reflected in other utilizing non-human cell sources or non-mucosa cell sources. In the permeation tests illustrated herein, simulated gastric and intestinal buffers were made with 0.2 normal (N) NaOH, made by mixing 1 g NaOH as needed with 125 mL deionized water. To simulate intestinal fluid without enzymes, 6.8 g monobasic potassium phosphate were mixed in 77 mL 0.2 N sodium hydroxide, and pH adjusted to 6.8±0.1 using NaOH or HCl, as needed. Thereafter, the solution was diluted to 1 L with deionized water, with a final pH of about 6.8±0.1. To simulate gastric fluid without enzymes, 2.0 g sodium chloride was added to 7.0 mL concentrated HCl, and then diluted to 1 L with deionized water. The pH was approximately 1.2
A repetition in a series of three repetitions was then undertaken to examined the changes in permeation in the presence of a different form of sodium as compared to leucine alone in Hank's Balanced salt solution across a Caco-2 model intestinal barrier (TEER≥1000 ohm*cm2). […] Leucine permeation across the Caco-2 monolayer was measured at 15, 30, 45, 60, 75 and 90 minutes after test initiation in milligrams of leucine per centimeter2 (mg/cm2). Data is summarized in Table I below and illustrated in FIG. 1.

[3] = system: Caco2 monolayer; details: for glutathione diffusion across Caco2: human, 10 mM
Description: (§1) Again, undyed isotonic DPBS as receiver and donor buffer rather than HBSS was used due to interference with HBSS components in the HPLC. […] Samples were taken at 15 minute intervals for 90 minutes and replaced with fresh isotonic DPBS. Samples were taken from donor chamber at time 0 and at 90 minutes.

[4] = system: Caco2 monolayer; format: in vitro ADME, human; details: for arginine diffusion across Caco2: human, 10 mM
Excerpt: In further experiments were undertaken using a Caco-2 cellular model similar to that described in connection with Example II above. […] For these experiments undyed isotonic DPBS was used as receiver and donor buffer rather than HBSS due to interference with HBSS components in the HPLC. […] The results of these studies in graphical form are illustrated in FIGS. 6 and 7.

[5] = system: Caco2 monolayer; test: L-Citrulline and L-Leucine permeability through Caco2 monolayer with/without TSC (Example V); format: in vitro ADME, human; details: for citrulline diffusion across Caco2: 10 mM each in DPBS
Description: as §1, with “isotonic DPBS was used as receiver” for “isotonic DPBS as receiver”, “than HBSS due to” for “than HBSS was used due to”

[6] = system: Caco2 monolayer; test: Sarcosine and L-Leucine permeability through Caco2 monolayer with/without TSC (Example VI); format: in vitro ADME, human; details: for sarcosine diffusion across Caco2: 10 mM each in DPBS, estimation by subtraction
Excerpt: On analysis it was discovered that a peak in the receiver side samples which had not interfered with previous samples eluted at the same time as the Sarcosine. The results were adjusted by averaging this peak from time points in previous studies and accordingly, the results represent an estimation by subtraction.

[7] = system: Caco2 monolayer; test: Valine permeability across Caco2 monolayer with/without TSC (Example X); format: in vitro ADME, human; details: for valine diffusion across Caco2: 10 mM in DPBS
Description: Undyed isotonic DPBS was used as receiver and donor buffer rather than HBSS due to interference with HBSS components and Valine in the HPLC. In brief 3 mM 10 mM Valine in DPBS alone or with 10 mM trisodium citrate was added to the donor chamber of each of 3 side by side diffusion cells with a confluent Caco 2 Monolayer between (TEER˜900 Ohm*cm2). […] Data is summarized below in Table X and graphically illustrated in FIG. 17.

[8] = system: Caco2 monolayer; test: Iso-leucine permeability through Caco2 monolayer with/without TSC (Example IX); format: in vitro ADME, human; details: for iso-leucine diffusion across Caco2: 10 mM in DPBS
Description: Undyed isotonic DPBS was used as receiver and donor buffer rather than HBSS due to interference with HBSS components and Valine in the HPLC. In brief 3 mM 10 mM Isoleucine or Valine in DPBS alone or with 10 mM trisodium citrate was added to the donor chamber of each of 3 side by side diffusion cells with a confluent Caco 2 Monolayer between (TEER˜900 Ohm*cm2). […] Below are the results of this study in table form, which are graphically illustrated in FIG. 16.

[9] = system: Caco 2 Monolayer; test: L-Arginine and L-Citrulline diffusion across Caco2 monolayer with/without TSC (Example III); format: in vitro ADME, human; details: for arginine diffusion across Caco2: human, 10 mM; for citrulline diffusion across Caco2: 10 mM in DPBS
Description: Thereafter, further diffusion studies were undertaken using a Caco-2 cellular model similar to that described in connection with Example II above. Four formulations were studied, with chemicals present at 10 mM: […]
For these experiments undyed isotonic DPBS was used as the receiver and donor buffer rather than HBSS due to interference with HBSS components in the HPLC. […] Below are the results of these studies.

SMILES: [Cl-].[Na+] [sodium chloride]
effect on leucine permeability [1]: did produce an effect
effect on permeability of creatine monohydrate [1]: enhanced

SMILES: O=C1O[C@H]([C@@H](O)CO)C([O-])=C1O.[Na+] [sodium ascorbate]
permeation of leucine in the presence of the sodium source ([2]; compared to leucine alone / sodium ascorbate): slight increase

SMILES: N[C@@H](CCC(=O)N[C@@H](CS)C(=O)NCC(=O)O)C(=O)O [Glutathione alone, Glutathione]
Glutathione permeation in the presence of trisodium citrate ([3]; Caco-2): significantly increased
glutathione diffusion across Caco2 ([3]; Caco-2, 15 min): 0.177 μM/cm^2
glutathione diffusion across Caco2 ([3]; Caco-2, 30 min): 0.467 μM/cm^2
glutathione diffusion across Caco2 ([3]; Caco-2, 45 min): 0.731 μM/cm^2
glutathione diffusion across Caco2 ([3]; Caco-2, 60 min): 0.977 μM/cm^2
glutathione diffusion across Caco2 ([3]; Caco-2, 75 min): 1.227 μM/cm^2
glutathione diffusion across Caco2 ([3]; Caco-2, 90 min): 1.456 μM/cm^2

SMILES: CC(C)[C@H](N)C(=O)O [Valine alone, Valine]
valine diffusion across Caco2 ([7]; 15 min): 1.388 μM/cm^2
valine diffusion across Caco2 ([7]; 30 min): 1.431 μM/cm^2
valine diffusion across Caco2 ([7]; 45 min): 1.537 μM/cm^2
valine diffusion across Caco2 ([7]; 60 min): 1.682 μM/cm^2
valine diffusion across Caco2 ([7]; 75 min): 1.841 μM/cm^2
valine diffusion across Caco2 ([7]; 90 min): 2.081 μM/cm^2
permeability shift in the presence of trisodium citrate ([7]; compared to iso-leucine and leucine): significantly greater permeability shift and overall higher permeability

SMILES: N=C(N)NCCC[C@H](N)C(=O)O [L-Arginine alone, L-Arginine]
arginine diffusion across Caco2 ([9]; Caco-2, 15 min): 0.988 μM/cm^2
arginine diffusion across Caco2 ([9]; Caco-2, 30 min): 1.453 μM/cm^2
arginine diffusion across Caco2 ([9]; Caco-2, 45 min): 2.033 μM/cm^2
arginine diffusion across Caco2 ([9]; Caco-2, 60 min): 2.578 μM/cm^2
arginine diffusion across Caco2 ([9]; Caco-2, 75 min): 3.005 μM/cm^2
arginine diffusion across Caco2 ([9]; Caco-2, 90 min): 3.448 μM/cm^2
L-Arginine permeability in the presence of trisodium citrate ([4]; Caco-2): enhanced
arginine diffusion across Caco2 ([4]; Caco-2, 15 min): 1.007 μM/cm^2
arginine diffusion across Caco2 ([4]; Caco-2, 30 min): 1.511 μM/cm^2
arginine diffusion across Caco2 ([4]; Caco-2, 45 min): 1.999 μM/cm^2
arginine diffusion across Caco2 ([4]; Caco-2, 60 min): 2.432 μM/cm^2
arginine diffusion across Caco2 ([4]; Caco-2, 75 min): 2.982 μM/cm^2
arginine diffusion across Caco2 ([4]; Caco-2, 90 min): 3.237 μM/cm^2

SMILES: NC(=O)NCCC[C@H](N)C(=O)O [L-Citrulline alone, L-Citrulline]
L-Citrulline change in permeability in the presence of TSC ([9]; 10 mM TSC): did not show any significant change
citrulline diffusion across Caco2 ([9]; 15 min): 2.281 μM/cm^2
citrulline diffusion across Caco2 ([9]; 30 min): 1.428 μM/cm^2
citrulline diffusion across Caco2 ([9]; 45 min): 1.415 μM/cm^2
citrulline diffusion across Caco2 ([9]; 60 min): 2.191 μM/cm^2
citrulline diffusion across Caco2 ([9]; 75 min): 2.457 μM/cm^2
citrulline diffusion across Caco2 ([9]; 90 min): 2.893 μM/cm^2
effect on L-Citrulline permeability by TSC or L-Leucine [5]: no significant effect
citrulline diffusion across Caco2 ([5]; 15 min): 0.846 μM/cm^2
citrulline diffusion across Caco2 ([5]; 30 min): 1.174 μM/cm^2
citrulline diffusion across Caco2 ([5]; 45 min): 1.906 μM/cm^2
citrulline diffusion across Caco2 ([5]; 60 min): 2.381 μM/cm^2
citrulline diffusion across Caco2 ([5]; 75 min): 2.699 μM/cm^2
citrulline diffusion across Caco2 ([5]; 90 min): 3.300 μM/cm^2

The next lines start with results.

Leucine permeation across Caco-2 monolayer ([2]; human, Caco-2, 15 min): 0.036 mg/cm2
Leucine permeation across Caco-2 monolayer ([2]; human, Caco-2, 30 min): 0.052 mg/cm2
Leucine permeation across Caco-2 monolayer ([2]; human, Caco-2, 45 min): 0.078 mg/cm2
Leucine permeation across Caco-2 monolayer ([2]; human, Caco-2, 60 min): 0.106 mg/cm2
Leucine permeation across Caco-2 monolayer ([2]; human, Caco-2, 75 min): 0.128 mg/cm2
Baseline adj for Leucine w/o Na ([2]; human, Caco-2, 90 min): 0.00 mg/cm2
Leucine permeation across Caco-2 monolayer ([2]; human, Caco-2, 90 min): 0.151 mg/cm2
L-Leucine permeability in the presence of trisodium citrate ([4]; Caco-2): enhanced
L-Leucine permeability in the presence of TSC ([5]; with L-Citrulline): enhanced
L-Leucine permeability in the presence of TSC ([6]; in the presence of sarcosine): enhanced
effect on the permeability of glutathione ([3]; Caco-2): no noticeable effect
permeability of Leucine in the presence of trisodium citrate ([3]; Caco-2): enhanced
SMILES: CC(C)C[C@H](N)C(=O)O [Leucine]

iso-leucine diffusion across Caco2 ([8]; 15 min): 0.271 μM/cm^2
iso-leucine diffusion across Caco2 ([8]; 30 min): 0.614 μM/cm^2
iso-leucine diffusion across Caco2 ([8]; 45 min): 0.978 μM/cm^2
iso-leucine diffusion across Caco2 ([8]; 60 min): 1.333 μM/cm^2
iso-leucine diffusion across Caco2 ([8]; 75 min): 1.748 μM/cm^2
iso-leucine diffusion across Caco2 ([8]; 90 min): 2.078 μM/cm^2
SMILES: CC[C@H](C)[C@H](N)C(=O)O [Iso-leucine alone, iso-leucine]
permeability shift as a result of the addition of trisodium citrate [8]: substantially similar permeability shift and overall permeability increase to that exhibited by leucine

Sarcosine permeability in the presence of TSC [6]: enhanced
sarcosine diffusion across Caco2 ([6]; 15 min): 0.496 μM/cm^2
sarcosine diffusion across Caco2 ([6]; 30 min): 0.405 μM/cm^2
sarcosine diffusion across Caco2 ([6]; 45 min): 0.974 μM/cm^2
sarcosine diffusion across Caco2 ([6]; 60 min): 1.423 μM/cm^2
sarcosine diffusion across Caco2 ([6]; 75 min): 2.102 μM/cm^2
sarcosine diffusion across Caco2 ([6]; 90 min): 1.801 μM/cm^2
SMILES: CNCC(=O)O [Sarcosine alone, Sarcosine]
